Reference: US20240368174A1, “Antiviral Heterocyclic Compounds” (Enanta Pharmaceuticals, Inc., priority 2023, published 2024)

Experiments:
[1] = test system: genotype A, “Long” strain RSV; assay: RSV-A assay (CPE, ATPlite readout in Hep-2 cells); assay type: cell-based, Human respiratory syncytial virus; conditions: human respiratory syncytial virus, activity class
Summary of the method: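 Compound effect on RSV-induced CPE: Hep-2 monolayers, MOI 0.1, duplicate 2-fold titrations, 5-day culture in 10% FBS DMEM. Readout is ATP-based luminescence, normalised to virus-only and no-virus controls, giving EC50.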

[2] = test system: HMPV clinical isolate A2 strain TN 94-49; assay: HMPV antiviral assay, Method 2 (LLC-MK2 cells with CP-100-356, ATP-Lite); assay type: cell-based; conditions: human metapneumovirus
Summary of the method: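 LLC-MK2 rhesus kidney cells (5,000/well) infected in suspension with HMPV A2 TN 94-49 at MOI 0.16, in serum-free medium with final 2 μg/mL TPCK-trypsin and 2 μM CP-100-356. Compounds tested in duplicate from 200 nM, 2.5-fold, 10 points; 7 days at 37 °C. Cell health by ATP-Lite luminescence; EC50 by four-parameter fit.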

[3] = hMPV A2 TN/94-49, LLC-MK2 cells with CP-100-356, Method 2
[4] = 168 h, hMPV A2 TN/94-49, LLC-MK2 cells with 4 μM CP-100-356, 7 days, ATP-Lite

Compound | EC50 [1] | EC50 [2, 3] | EC50 [2, 4]
COc1cc(C(=O)NC[C@@](O)(c2cccc(F)c2)c2cc3c(c(-c4ccnc(C)c4Cl)n2)OC[C@]3(C)C(N)=O)cc2cn(C3CC3)nc12 [Example 378] | < 200 nM | < 200 nM | –
COc1cc(C(=O)NCC(O)(c2cccc(F)c2)c2cc3c(c(-c4cc(C(F)(F)F)ncc4Cl)n2)OC[C@]3(C)C(N)=O)cc2cn(C3CC3)nc12 (stereo partly drawn) [Example 379] | < 200 nM | > 200 nM | –
COc1cc(C(=O)NC[C@](O)(c2cc3c(c(-c4ccnc(F)c4Cl)n2)OC[C@]3(C)C(N)=O)C(F)(F)F)cc2cn(C(F)F)nc12 [Example 380] | < 200 nM | < 200 nM | –
COc1cc(C(=O)NC[C@](O)(c2cc3c(c(-c4cc(F)nc(F)c4)n2)OC[C@]3(C)C(N)=O)C2CC2)cc2cn(C3CC3)nc12 [Example 390] | < 200 nM | < 200 nM | –
COc1cc(C(=O)NC[C@@](O)(c2cccc(F)c2)c2cc3c(c(-c4ccnc(F)c4Cl)n2)OC[C@]3(C)C(N)=O)cc2cn(C3(F)CC3)nc12 [Example 401] | < 200 nM | < 200 nM | –
COc1cc(C(=O)NC[C@](O)(c2cccc(F)c2)c2cc3c(c(-c4ccnc(F)c4Cl)n2)OC[C@]3(C)C(N)=O)cc2cn(C3(F)CC3)nc12 [Example 402] | > 200 nM | > 200 nM | –
COc1cc(C(=O)NC[C@@](O)(c2cccc(F)c2)c2cc3c(c(-c4cc(F)cnc4Cl)n2)OC[C@]3(C)C(N)=O)cc2cn(C3(F)CC3)nc12 [Example 403] | < 200 nM | > 200 nM | –
COc1cc(C(=O)NC[C@](O)(c2cccc(F)c2)c2cc3c(c(-c4cc(F)cnc4Cl)n2)OC[C@]3(C)C(N)=O)cc2cn(C3(F)CC3)nc12 [Example 404] | > 200 nM | > 200 nM | –
COc1cc(C(=O)NC[C@@](O)(c2cccc(F)c2)c2cc3c(c(-c4ccnc(F)c4Cl)n2)OC[C@]3(C)C(N)=O)cc2cn(C3CC3)nc12 [Example 407] | < 200 nM | < 200 nM | –
COc1cc(C(=O)NC[C@@](O)(c2cccc(F)c2)c2cc3c(c(-c4cc(C(F)(F)F)ncc4F)n2)OC[C@]3(C)C(N)=O)cc2cn(C3CC3)nc12 [Example 408] | < 200 nM | < 200 nM | –
COc1cc(C(=O)NC[C@@](O)(c2cccc(F)c2)c2cc3c(c(-c4cc(Cl)ncc4F)n2)OC[C@]3(C)C(N)=O)cc2cn(C3CC3)nc12 [Example 410] | < 200 nM | < 200 nM | –
COc1cc(C(=O)NC[C@](O)(c2cc3c(c(-c4cc(C)ncc4F)n2)OC[C@]3(C)C(N)=O)C2CC2)cc2cn(C3CC3)nc12 [Example 412] | < 200 nM | < 200 nM | –
COc1cc(C(=O)NC[C@](O)(c2cc3c(c(-c4ccsc4)n2)OC[C@]3(C)C(N)=O)C2CC2)cc2cn(C3CC3)nc12 [Example 413] | < 200 nM | < 200 nM | –
COc1cc(C(=O)NC[C@](O)(c2cc3c(c(-c4cscc4C)n2)OC[C@]3(C)C(N)=O)C2CC2)cc2cn(C3CC3)nc12 [Example 414] | < 200 nM | < 200 nM | –
COc1cc(C(=O)NC[C@](O)(c2cc3c(c(-c4ccsc4Cl)n2)OC[C@]3(C)C(N)=O)C2CC2)cc2cn(C3CC3)nc12 [Example 415] | < 200 nM | < 200 nM | –
COc1cc(C(=O)NC[C@](O)(c2cc3c(c(-c4csc(Cl)c4)n2)OC[C@]3(C)C(N)=O)C2CC2)cc2cn(C3CC3)nc12 [Example 416] | < 200 nM | < 200 nM | –
COc1cc(C(=O)NC[C@](O)(c2cc3c(c(-c4cc(Cl)ncc4C)n2)OC[C@]3(C)C(N)=O)C2CC2)cc2cn(C3CC3)nc12 [Example 417] | < 200 nM | < 200 nM | –
COc1cc(C(=O)NC[C@](O)(c2cc3c(c(-n4ccc5ccccc54)n2)OC[C@]3(C)C(N)=O)C2CC2)cc2cn(C3CC3)nc12 [Example 443] | < 200 nM | < 200 nM | –
C#CC(O)(CNC(=O)c1cc(OC)c2nn(C3CC3)cc2c1)c1cc2c(c(-c3cc(Cl)c(F)cc3F)n1)OC[C@]2(C)C(N)=O (stereo partly drawn) [Example 473] | < 200 nM | > 200 nM | –
COc1cc(C(=O)NC[C@](O)(c2cc3c(c(-c4cc(Cl)c(F)cc4F)n2)OC[C@]3(C)C(N)=O)C(C)C)cc2cn(C3CC3)nc12 [Example 476] | < 200 nM | < 200 nM | –
COc1cc(C(=O)NC[C@@](O)(C#CC(C)(C)O)c2cc3c(c(-c4cc(Cl)c(F)cc4F)n2)OC[C@]3(C)C(N)=O)cc2cn(C3CC3)nc12 [Example 477] | < 200 nM | > 200 nM | –
COc1cc(C(=O)NC[C@@](O)(CC2CC2)c2cc3c(c(-c4cc(Cl)c(F)cc4F)n2)OC[C@]3(C)C(N)=O)cc2cn(C3CC3)nc12 [Example 517] | > 200 nM | > 200 nM | –
COC1=CC(C(=O)NC[C@](O)(c2cc3c(c(-c4ccnc(C)c4Cl)n2)OC[C@]3(C)C(N)=O)C2(F)CC2)=CC2OC(C3CC3)=NC12 (stereo partly drawn) [Example 526] | < 200 nM | < 200 nM | –

Compound | EC50 [1] | EC50 [2, 3] | EC50 [2, 4]
COc1cc(C(=O)NC[C@](O)(c2cc3c(c(-c4ccnc(C)c4Cl)n2)OC[C@]3(C)C(N)=O)C2(F)CC2)cc2cn(C(F)F)nc12 [Example 527] | < 200 nM | > 200 nM | –
COc1cc(C(=O)NC[C@](O)(c2cc3c(c(-c4ccnc(C)c4Cl)n2)OC[C@]3(C)C(N)=O)C2(F)CC2)cc2cn(C3CC3)nc12 [Example 531] | < 200 nM | < 200 nM | –
COc1cc(C(=O)NC[C@](O)(c2cc3c(c(-c4ccnc(C(F)(F)F)c4Cl)n2)OC[C@]3(C)C(N)=O)C(F)(F)F)cc2cn(C3(F)CC3)nc12 [Example 534] | < 200 nM | < 200 nM | –
COc1cc(C(=O)NC[C@](O)(c2cc3c(c(-c4ccnc(C(F)(F)F)c4Cl)n2)OC[C@]3(C)C(N)=O)C(F)(F)F)cc2oc(C3CC3)nc12 [Example 536] | < 200 nM | < 200 nM | –
COc1cc(C(=O)NC[C@](O)(c2cc3c(c(-c4ccnc(C(F)F)c4Cl)n2)OC[C@]3(C)C(N)=O)C2CC2)cc2oc(C(F)F)nc12 [Example 542] | < 200 nM | < 200 nM | –
COc1nccc(-c2nc([C@@](O)(CNC(=O)c3cc(OC)c4nn(C5(F)CC5)cc4c3)C(F)(F)F)cc3c2OC[C@]3(C)C(N)=O)c1Cl [Example 543] | < 200 nM | < 200 nM | –
COc1cc(C(=O)NC[C@](O)(c2cc3c(c(-c4ccnc(C(F)F)c4Cl)n2)OC[C@]3(C)C(N)=O)C(F)(F)F)cc2cn(C3(F)CC3)nc12 [Example 548] | < 200 nM | < 200 nM | –
COc1cc(C(=O)NC[C@](O)(c2cc3c(c(-c4ccnc(C(F)F)c4Cl)n2)OC[C@]3(C)C(N)=O)C(F)(F)F)cc2oc(C3CC3)nc12 [Example 550] | < 200 nM | < 200 nM | –
COc1cc(C(=O)NC[C@](O)(c2cc3c(c(-c4ccnc(C(F)(F)F)c4Cl)n2)OC[C@]3(C)C(N)=O)C2CC2)cc2cc(C3CC3)nn12 [Example 579] | < 200 nM | < 200 nM | –
COc1cc(C(=O)NC[C@](O)(c2cc3c(c(-c4ccnc(C(F)(F)F)c4Cl)n2)OC[C@]3(C)C(N)=O)C2CC2)cc2oc(C(F)F)nc12 [Example 581] | < 200 nM | < 200 nM | –
COc1nccc(-c2nc([C@@](O)(CNC(=O)c3cc(OC)n4nc(C5CC5)cc4c3)C3CC3)cc3c2OC[C@]3(C)C(N)=O)c1Cl [Example 582] | < 200 nM | < 200 nM | –
COc1nccc(-c2nc([C@@](O)(CNC(=O)c3cc(OC4CC4)c4nn(C5CC5)cc4c3)C3CC3)cc3c2OC[C@]3(C)C(N)=O)c1Cl [Example 585] | < 200 nM | < 200 nM | –
COc1cc(C(=O)NC[C@](O)(c2cc3c(c(-c4cccc(F)c4Cl)n2)OC[C@]3(C)C(N)=O)C(F)(F)F)cc2cn(C3(F)CC3)nc12 [Example 611] | < 200 nM | < 200 nM | –
COc1cc(C(=O)NC[C@](O)(c2cc3c(c(-n4ncc5c(F)cccc54)n2)OC[C@]3(C)C(N)=O)C2CC2)cc2cn(C3(F)CC3)nc12 [Example 613] | < 200 nM | < 200 nM | –
COc1cc(C(=O)NC[C@](O)(c2cc3c(c(-c4cccc(F)c4Cl)n2)OC[C@]3(C)C(N)=O)C2CC2)cc2cn(C3(F)CC3)nc12 [Example 615] | < 200 nM | < 200 nM | –
COc1cc(C(=O)NC[C@](O)(c2cc3c(c(-n4ncc5c(F)cccc54)n2)OC[C@]3(C)C(N)=O)C2CC2)cc2oc(C3CC3)nc12 [Example 622] | < 200 nM | – | < 200 nM
COc1cc(C(=O)NC[C@@](O)(c2ccccc2)c2cc3c(c(-n4ncc5c(F)cccc54)n2)OC[C@]3(C)C(N)=O)cc2cn(C3CC3)nc12 [Example 628] | < 200 nM | – | < 200 nM
COc1cc(C(=O)NC[C@@](O)(c2ccccc2)c2cc3c(c(-n4ncc5c(F)cccc54)n2)OC[C@]3(C)C(N)=O)cc2cn(C3(F)CC3)nc12 [Example 629] | < 200 nM | – | < 200 nM
COc1cc(C(=O)NC[C@@](O)(c2ccccc2)c2cc3c(c(-n4ncc5c(F)cccc54)n2)OC[C@]3(C)C(N)=O)cc2cc(C3CC3)nn12 [Example 630] | < 200 nM | – | < 200 nM
COc1cc(C(=O)NC[C@@](O)(c2ccccc2)c2cc3c(c(-n4ncc5c(F)cccc54)n2)OC[C@]3(C)C(N)=O)cc2oc(C3CC3)nc12 [Example 631] | < 200 nM | – | < 200 nM
COc1cc(C(=O)NC[C@](O)(c2cc3c(c(-c4cc(C(F)(F)F)ncc4F)n2)OC[C@]3(C)C(N)=O)C2CC2)cc2cc(C3CC3)nn12 [Example 661] | < 200 nM | – | < 200 nM
COc1cc(C(=O)NC[C@](O)(c2cc3c(c(-c4cc(C(F)(F)F)ncc4F)n2)OC[C@]3(C)C(N)=O)C2CC2)cn2cc(C3CC3)nc12 [Example 662] | < 200 nM | – | < 200 nM
